Experimental data reported in PubChem BioAssay AID248 (DTP/NCI, 2004).
Values joined by “and” are separate entries in the source; they are usually repeats but may differ in a detail not shown here. Equal values may be shown once. Toxic doses and inconclusive results are not listed. Rule as the data show it: active = T/C of 150% or more; inactive = T/C below 125%.

Test system: L1210 leukemia ip in BDF1 mice, survival T/C
Assay: NCI In Vivo Anticancer Drug Screen. Data for tumor model L1210 Leukemia (intraperitoneal) in B6D2F1 (BDF1) mice
Conditions: endpoint: mean survival time, higher = longer survival
Method in brief: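 Transplanted-tumor mice were given test agent; controls received vehicle only. Survival readings from the two groups were divided (treated over control).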

[1] = dose: 100.0 mg/kg/injection, schedule: Q01DX001 (ip), vehicle: carboxymethylcellulose (CMC)
[2] = dose: 200.0 mg/kg/injection, schedule: Q01DX001 (ip), vehicle: carboxymethylcellulose (CMC)
[3] = dose: 400.0 mg/kg/injection, schedule: Q01DX001 (ip), vehicle: carboxymethylcellulose (CMC)
[4] = dose: 100.0 mg/kg/injection, schedule: Q04DX003 (ip), vehicle: saline
[5] = dose: 200.0 mg/kg/injection, schedule: Q04DX003 (ip), vehicle: saline
[6] = dose: 100.0 mg/kg/injection, schedule: Q01DX009 (ip), vehicle: Klucel (hydroxypropylcellulose) (HPC)
[7] = dose: 200.0 mg/kg/injection, schedule: Q01DX009 (ip), vehicle: Klucel (hydroxypropylcellulose) (HPC)
[8] = dose: 400.0 mg/kg/injection, schedule: Q01DX009 (ip), vehicle: Klucel (hydroxypropylcellulose) (HPC)
[9] = dose: 100.0 mg/kg/injection, schedule: Q04DX002 (ip), vehicle: saline
[10] = dose: 200.0 mg/kg/injection, schedule: Q04DX002 (ip), vehicle: saline
[11] = dose: 400.0 mg/kg/injection, schedule: Q04DX002 (ip), vehicle: saline
[12] = dose: 50.0 mg/kg/injection, schedule: Q04DX003 (ip), vehicle: Klucel (hydroxypropylcellulose) (HPC)
[13] = dose: 100.0 mg/kg/injection, schedule: Q04DX003 (ip), vehicle: Klucel (hydroxypropylcellulose) (HPC)
[14] = dose: 200.0 mg/kg/injection, schedule: Q04DX003 (ip), vehicle: Klucel (hydroxypropylcellulose) (HPC)
[15] = dose: 100.0 mg/kg/injection, schedule: Q04DX002 (ip), vehicle: Klucel (hydroxypropylcellulose) (HPC)
[16] = dose: 200.0 mg/kg/injection, schedule: Q04DX002 (ip), vehicle: Klucel (hydroxypropylcellulose) (HPC)
[17] = dose: 400.0 mg/kg/injection, schedule: Q04DX002 (ip), vehicle: Klucel (hydroxypropylcellulose) (HPC)

Measured: T/C

CN(C(=O)OCc1ccccc1)c1ccc(C(=O)NC(CCC(=O)O)C(=O)O)cc1 (configuration not stated)
inactive: [1] 94 % of control | [2] 102 % of control | [3] 96 % of control

CC1([N+](=O)[O-])COP(=O)(NCCCN2CCOCC2)OC1 (configuration not stated)
inactive: [1] 97 % of control | [2] 97 % of control | [3] 97 % of control

COc1ccc(CC(=O)NNC(=O)C2(C(C)C)OC3(O)CCCCN3C2=O)cc1OC (configuration not stated)
inactive: dose: 25.0 mg/kg/injection, schedule: Q04DX003 (ip), vehicle: saline 101 % of control | dose: 50.0 mg/kg/injection, schedule: Q04DX003 (ip), vehicle: saline 92 % of control | [4] 106 % of control | [5] 92 % of control

[I][Hg][I].c1ccc(P(N2CCCCC2)N2CCCCC2)cc1
inactive: [6] 102 % of control | [7] 97 % of control | [8] 97 % of control

O=C(O)c1ccc(Br)c([N+](=O)[O-])c1
inactive: [6] 95 % of control | [7] 94 % of control | [8] 92 % of control

Cc1cc(-c2ccccc2O)nc(N)n1
inactive: [9] 90 % of control | [10] 94 % of control | [11] 90 % of control

CN(C)S(=O)(=O)ON1C(=O)c2ccccc2C1=O
inactive: dose: 75.0 mg/kg/injection, schedule: Q01DX001 (ip), vehicle: other 103 % of control | dose: 150.0 mg/kg/injection, schedule: Q01DX001 (ip), vehicle: other 108 % of control | dose: 300.0 mg/kg/injection, schedule: Q01DX001 (ip), vehicle: other 94 % of control

O=c1c2cc([N+](=O)[O-])ccc2[nH]c2c1ccc1ccccc12
inactive: [4] 92 % of control | [5] 92 % of control | dose: 400.0 mg/kg/injection, schedule: Q04DX003 (ip), vehicle: saline 90 % of control

O=C(O)CCSSCCC(=O)O
inactive: [12] 103 % of control | [6] 95 % of control | [13] 86 % of control | [7] 87 % of control | [14] 86 % of control

Clc1ccc(Cl)nn1
inactive: [9] 102 % of control | [10] 87 % of control | [11] 87 % of control

Nc1nc(N)c(-c2ccc(Cl)c(Cl)c2)c(C[P+](c2ccccc2)(c2ccccc2)c2ccccc2)n1
inactive: dose: 75.0 mg/kg/injection, schedule: Q01DX001 (ip), vehicle: saline 97 % of control

CCOc1ccc(Nc2ncnc3nc[nH]c23)cc1CN(CCCl)CCCl
inactive: dose: 1.2 mg/kg/injection, schedule: Q01DX Z (ip), vehicle: carboxymethylcellulose (CMC) 98 % of control | dose: 1.3 mg/kg/injection, schedule: Q01DX Z (ip), vehicle: carboxymethylcellulose (CMC) 114 % of control | dose: 1.56 mg/kg/injection, schedule: Q04DX003 (ip), vehicle: saline 113 % of control | dose: 1.9 mg/kg/injection, schedule: Q01DX Z (ip), vehicle: carboxymethylcellulose (CMC) 117 % of control | dose: 2.5 mg/kg/injection, schedule: Q01DX Z (ip), vehicle: carboxymethylcellulose (CMC) 103 % of control | dose: 3.3 mg/kg/injection, schedule: Q04DX003 (ip), vehicle: saline 111 % of control | dose: 4.2 mg/kg/injection, schedule: Q01DX Z (ip), vehicle: carboxymethylcellulose (CMC) 116 % of control | dose: 5.0 mg/kg/injection, schedule: Q01DX001 (ip), vehicle: carboxymethylcellulose (CMC) 104 % of control | dose: 5.0 mg/kg/injection, schedule: Q01DX Z (ip), vehicle: carboxymethylcellulose (CMC) 116 % of control | dose: 5.0 mg/kg/injection, schedule: Q04DX003 (ip), vehicle: saline 122 % of control | dose: 7.5 mg/kg/injection, schedule: Q04DX003 (ip), vehicle: saline 121 % of control | dose: 10.0 mg/kg/injection, schedule: Q01DX001 (ip), vehicle: carboxymethylcellulose (CMC) 102 % of control | dose: 10.0 mg/kg/injection, schedule: Q01DX Z (ip), vehicle: carboxymethylcellulose (CMC) 110 % of control | dose: 20.0 mg/kg/injection, schedule: Q01DX001 (ip), vehicle: carboxymethylcellulose (CMC) 109 % of control | dose: 40.0 mg/kg/injection, schedule: Q01DX001 (ip), vehicle: carboxymethylcellulose (CMC) 102 % of control

CC(C)N(CCC#N)C(=S)Nc1cccc(C(F)(F)F)c1
inactive: dose: 100.0 mg/kg/injection, schedule: Q01DX009 (ip), vehicle: other 102 % of control | dose: 200.0 mg/kg/injection, schedule: Q01DX009 (ip), vehicle: other 104 % of control | dose: 400.0 mg/kg/injection, schedule: Q01DX009 (ip), vehicle: other 103 % of control

Cc1cccnc1N
inactive: dose: 100.0 mg/kg/injection, schedule: Q04DX002 (ip), vehicle: saline with Tween-80 104 % of control | dose: 200.0 mg/kg/injection, schedule: Q04DX002 (ip), vehicle: saline with Tween-80 107 % of control

[N-]=[N+]=C1C(C(=O)c2ccccc2)=NN=C1c1ccccc1
inactive: [12] 97 % of control | [13] 104 % of control | [14] 108 % of control

NCOC(=O)Cc1ccc(Br)cc1
inactive: [6] 98 % of control | [13] 96 % of control | [7] 101 % of control | [14] 101 % of control | [8] 96 % of control | dose: 400.0 mg/kg/injection, schedule: Q04DX003 (ip), vehicle: Klucel (hydroxypropylcellulose) (HPC) 101 % of control

CCOC(=O)/C=C(\C)C(C)(C)C(C)=O
inactive: dose: 100.0 mg/kg/injection, schedule: Q01DX001 (ip), vehicle: saline 90 % of control | dose: 200.0 mg/kg/injection, schedule: Q01DX001 (ip), vehicle: saline 101 % of control | dose: 400.0 mg/kg/injection, schedule: Q01DX001 (ip), vehicle: saline 98 % of control

CCN(CC)Cc1ccccc1COC(=O)c1ccc(Br)cc1
inactive: [15] 101 % of control | [16] 108 % of control | [17] 101 % of control

COc1cccc(C(N)=O)c1
inactive: [15] 97 % of control | [16] 97 % of control | [17] 104 % of control

O=[N+]([O-])c1ccc2nc(-c3ccccc3)nn2c1
inactive: dose: 100.0 mg/kg/injection, schedule: Q01DX001 (ip), vehicle: acetone 92 % of control | dose: 200.0 mg/kg/injection, schedule: Q01DX001 (ip), vehicle: acetone 87 % of control | dose: 400.0 mg/kg/injection, schedule: Q01DX001 (ip), vehicle: acetone 93 % of control

CC12CC3CC(C)(C1)CC(SC(=N)N)(C3)C2
inactive: dose: 10.0 mg/kg/injection, schedule: Q04DX002 (ip), vehicle: Klucel (hydroxypropylcellulose) (HPC) 97 % of control | dose: 20.0 mg/kg/injection, schedule: Q04DX002 (ip), vehicle: Klucel (hydroxypropylcellulose) (HPC) 102 % of control | dose: 40.0 mg/kg/injection, schedule: Q04DX002 (ip), vehicle: Klucel (hydroxypropylcellulose) (HPC) 105 % of control

S=C(NCCNC(=S)[S][Sn]([c]1ccccc1)([c]1ccccc1)[c]1ccccc1)[S][Sn]([c]1ccccc1)([c]1ccccc1)[c]1ccccc1
inactive: dose: 4.0 mg/kg/injection, schedule: Q01DX015 (ip), vehicle: carboxymethylcellulose (CMC) 97 % of control | dose: 8.0 mg/kg/injection, schedule: Q01DX015 (ip), vehicle: carboxymethylcellulose (CMC) 97 % of control | dose: 16.0 mg/kg/injection, schedule: Q01DX015 (ip), vehicle: carboxymethylcellulose (CMC) 94 % of control | dose: 25.0 mg/kg/injection, schedule: Q01DX009 (ip), vehicle: saline with Tween-80 92 % of control | dose: 32.0 mg/kg/injection, schedule: Q01DX015 (ip), vehicle: carboxymethylcellulose (CMC) 94 % of control and 104 % of control | dose: 50.0 mg/kg/injection, schedule: Q01DX009 (ip), vehicle: saline with Tween-80 91 % of control | dose: 64.0 mg/kg/injection, schedule: Q01DX015 (ip), vehicle: carboxymethylcellulose (CMC) 112 % of control | [1] 100 % of control | dose: 100.0 mg/kg/injection, schedule: Q04DX003 (ip), vehicle: saline with Tween-80 96 % of control | [2] 100 % of control | [3] 102 % of control

Oc1c(Cl)cc(Cl)c(Cl)c1Cc1c(O)c(Cl)cc(Cl)c1Cl
inactive: dose: 12.5 mg/kg/injection, schedule: Q04DX003 (ip), vehicle: Klucel (hydroxypropylcellulose) (HPC) 109 % of control | dose: 25.0 mg/kg/injection, schedule: Q04DX003 (ip), vehicle: Klucel (hydroxypropylcellulose) (HPC) 100 % of control | [12] 98 % of control
